Experimental findings from US20230139826A1 (NONO INC., priority 2020, published 2023) are described below.

Data set [1] can be described thus: rat plasma in the absence of alteplase. The following applies: Rat Sprague Dawley, 37° C., up to 45 min.
A short description of data set [2]: human plasma in the absence of alteplase. The following applies: 37° C., up to 45 min.
For a further data set, the system named is plasmin (10 ug/mL). As to the kind of experiment: PBS during a challenge with plasmin (10 ug/mL). The following applies: 37° C.
The subject of data set [3] is tenecteplase (TNK) 6.25 ug/ml. Nature of the data set: human plasma during a challenge with tenecteplase (TNK; 6.25 ug/ml).
Data set [4] has as its system rt-PA (alteplase) 135 ug/ml. As to the kind of experiment: human plasma during a challenge with rt-PA (135 ug/ml). The following applies: 37° C., up to 45 min.
Data set [5] relates to rt-PA (alteplase) (135 ug/ml). Nature of the data set: PBS during a challenge with rt-PA (135 ug/ml). The settings on record: 37° C.
In data set [6] the test system is rt-PA (alteplase) 135 ug/ml. Nature of the data set: rat plasma during a challenge with rt-PA (135 ug/ml). The settings on record: Rat Sprague Dawley, 37° C., up to 45 min.
Data set [7] deals with tenecteplase (TNK) 37.5 ug/ml. As to the kind of experiment: rat plasma during a challenge with tenecteplase (TNK; 37.5 ug/ml). The settings on record: Rat Sprague Dawley.

With ygrkkrrqrrrKLSSIESDV, the not cleaved entry in data set [1] was “stable”; in data set [2] it was “stable”; with plasmin (10 ug/mL), “no significant degradation”; in data set [3], “no rapid elimination on addition of TNK”; in data set [4], “no rapid degradation on addition of alteplase”; in data set [5] it was “not affected by co-incubation with alteplase”. For the same substance, the not cleaved result in data set [6] is reported as “no rapid degradation on addition of alteplase”; in data set [7], “no rapid elimination on addition of TNK”.
